From patent US10729674B2, “Nanoparticle isoflavone compositions and methods of making and using the same” (Humanetics Corporation, priority 2010, dated 2020)
Converted amounts (≈) assume the structure as drawn. Like-named read-outs stand apart in the source and are kept apart here.

Tests used:
[1] = Pharmacokinetics and excretion in mice after IV or IM 14C-Genistein (Example 8); format: in vivo; conditions: for Bioavailibility / AUC0-inf / AUC0-tlast / Cmax / Extrapolation / ke1 / tlast: male CD1 mice, total radioactivity; for Bioavailibility: Group 2 single IM 200 mg/kg vs IV; for Excretion recovery: by 168 hours post dose
Method: As shown in the results of Table 10, male CD1 mice were administered a single IM dose (Group 2, nominal 200 mg/kg) or a single IV bolus dose (Group 3, nominal 50 mg/kg) of ^14C-Genistein. The genistein formulation used was a suspension formulation that includes genistein suspended in sterile water with 0.2% (w/w) Polysorbate 80 and 5% (w/w) PVP K17. […] Following dosing, the content and concentration of radioactivity in blood, plasma, excreta and carcass, and the non-compartmental pharmacokinetics of total radioactivity in whole blood and plasma were determined, Following dose administration, the extent and severity of any clinical signs was assessed.
(§1) Whole-blood samples were collected and plasma was obtained by centrifugation. The concentration of radioactivity in whole-blood and plasma was measured by liquid scintillation spectroscopy.

[2] = Pharmacokinetics and excretion in Beagle dogs after IV or IM 14C-Genistein (Example 9); format: in vivo; conditions: for AUC0-inf / AUC0-tlast / Cmax / Extrapolation / ke1 / tlast / Bioavailibility: male Beagle dogs, total radioactivity; for Bioavailibility: Group 2 single IM 20 mg/kg vs IV, from AUC0-tlast
Method: (§2) Male Beagle dogs were administered a single IV bolus dose (Group 1, nominal 20 mg/kg) or a single IM dose (Group 2, nominal 20 mg/kg) of 14C-Genistein (results shown in Table 11). The Genistein suspension formulation used was prepared as described in Example 8, Following dosing, the content and concentration of radioactivity in blood, plasma and excreta, and the non-compartmental pharmacokinetics of total radioactivity in whole blood and plasma were determined. The concentration of radioactivity in both dose formulations was measured pre and post dose by liquid scintillation spectroscopy and was similar on both occasions. The radiochemical stability of the test article in both dose formulations was assessed prior to and following the administration of the dose. The mean stability values for pre and post dose samples from the intravenous dose formulation (Group 1) were 100% and 99.6%, respectively. The mean stability values for pre and post dose samples from the intramuscular dose formulation (Group 2) were 99.2% and 98.9%, respectively. Therefore, the ^14C-Genistein in both formulations was considered to have been radiochemically stable throughout the dosing period.
as §1

[3] = Radiochemical stability of the test article in dose formulations; format: physicochemical; conditions: for mean stability value (radiochemical): dog study; for mean radiochemical stability: mouse study
Method: The concentration of radioactivity in both dose formulations was measured pre and post dose by liquid scintillation spectroscopy and was similar on both occasions. The radiochemical stability of the test article in both dose formulations was assessed prior to and following the administration of the dose. The mean radiochemical stability of the test article in the dose formulation samples from the intramuscular dose formulation (Group 2) were 98.5% and 98.2%, respectively. The mean radiochemical stability values for pre and post dose samples from the intravenous dose formulation (Group 3) were 98.3% and 98.5%, respectively. Therefore, the ^14C-Genistein in both formulations was considered to have been radiochemically stable throughout the dosing period.
as §2

[4] = 25° C.; cited from earlier work
[5] = Solubility of genistein in vehicles at 25° C.; format: physicochemical
Method: Calculated pka's for genistein range from 7-9, with the predicted solubility increasing above pH 7 in accordance with the lowest pKa. The calculated properties were used to design the appropriate pH range for the pH-solubility profile of genistein in several acceptable cosolvents, which was established to be pH 6-9.
The solubility of genistein in water is not detectable at pH 6-7, which implies the solubility is less than 0.02 mg/mL or ˜0.00002 g/g H2O (lowest concentration), Based on the pH-solubility and solubility in cosolvents, it was determined that PEG400 would be the cosolvent to achieve highest solubility. Since parenteral formulations preferably have a maximum of 50% organic component, the addition of Ethanol (EtOH), Nmethylpyrrolidone (NMP) and a surfactant were considered, since these would be expected to enhance absorption from the injection site. Ethanol has the added benefit of reducing viscosity. […] Solubility was further evaluated in two aqueous/organic mixtures with concentrations acceptable for a parenteral dosage form. Additionally, cyclodextrin formulations were evaluated.

[6] = Group 2 single IM 200 mg/kg, blood
[7] = Group 2 single IM 200 mg/kg, plasma
[8] = Group 3 single IV bolus 50 mg/kg, blood
[9] = Group 3 single IV bolus 50 mg/kg, plasma
[10] = Group 1 single IV bolus 20 mg/kg, blood
[11] = Group 1 single IV bolus 20 mg/kg, plasma
[12] = Group 2 single IM 20 mg/kg, blood
[13] = Group 2 single IM 20 mg/kg, plasma

O=c1c(-c2ccc(O)cc2)coc2cc(O)cc(O)c12 [14C-Genistein]
treatment-related clinical signs ([1]; main study male mice, single IM 200 mg/kg or single IV 50 mg/kg): No treatment-related clinical signs were observed
Bioavailibility ([1]; blood): 49.7%
Bioavailibility ([1]; plasma): 83.5%
AUC0-inf [1, 6]: 223 μg eq · h/mL
AUC0-tlast [1, 6]: 222 μg eq · h/mL
Cmax [1, 6]: 33.3 μg eq/mL
Extrapolation [1, 6]: 0.663%
ke1 [1, 6]: 0.0242 h⁻¹
tlast [1, 6]: 168 h
AUC0-inf [1, 7]: 387 μg eq · h/mL
AUC0-tlast [1, 7]: 375 μg eq · h/mL
Cmax [1, 7]: 63.1 μg eq/mL
Extrapolation [1, 7]: 3.18%
ke1 [1, 7]: 0.0145 h⁻¹
tlast [1, 7]: 168 h
AUC0-inf [1, 8]: 112 μg eq · h/mL
AUC0-tlast [1, 8]: 99.7 μg eq · h/mL
Cmax [1, 8]: 60.1 μg eq/mL
Extrapolation [1, 8]: 11.4%
ke1 [1, 8]: 0.0118 h⁻¹
tlast [1, 8]: 168 h
AUC0-inf [1, 9]: 116 μg eq · h/mL
AUC0-tlast [1, 9]: 116 μg eq · h/mL
Cmax [1, 9]: 108 μg eq/mL
Extrapolation [1, 9]: 0.191%
ke1 [1, 9]: 0.0307 h⁻¹
tlast [1, 9]: 168 h
tolerability of dose level ([1]; mice, 200 mg/kg (IM) and 50 mg/kg (IV)): well tolerated
Blood to plasma ratios ([1]; mice, Group 2 IM 200 mg/kg, any time post dose): less than 1
time post dose of highest mean concentration of radioactivity in plasma and whole blood ([1]; mice, Group 2 IM 200 mg/kg, first time point analyzed): 30 min
Excretion recovery ([1]; mice, Group 2 IM): ~92%
blood-to-plasma ratios ([1]; mice, Group 3 IV 50 mg/kg, 0 to 24 hours): less than 1
time post dose of highest mean concentration of radiolabelled material in plasma and whole blood ([1]; mice, Group 3 IV 50 mg/kg, first time point analyzed): 30 min
Excretion recovery ([1]; mice, Group 3 IV): approximately 93%
time within which the majority of the dose administered was excreted ([1]; mice, both dose routes): ≤ 24 h
Excretion recovery by 168 hours post dose ([2]; dogs, Group 1 IV): approximately 87.9%
Blood to plasma ratios ([2]; dogs, Group 1 IV bolus 20 mg/kg): less than 1
time post dose of highest mean concentration of radiolabelled material in plasma and whole blood ([2]; dogs, Group 1 IV bolus 20 mg/kg, first time point analyzed): 15 min
Excretion recovery by 168 hours post dose ([2]; dogs, Group 2 IM): ~85.8%
time post dose of highest mean concentration of radioactivity in plasma and whole blood ([2]; dogs, Group 2 IM 20 mg/kg): 2 h
Blood to plasma ratios ([2]; dogs, Group 2 IM 20 mg/kg, any time post dose): less than 1
Clinical signs ([2]; dogs, IV bolus 20 mg/kg and IM 20 mg/kg, considered to be dose-related): Clinical signs were observed in both groups
excretion mass balance ([2]; dogs, both dose routes): greater than 85%
time within which the majority of the dose administered was excreted ([2]; dogs, both dose routes): ≤ 48 h
overall mean excretion mass balance of radioactivity ([2]; dogs, both groups): 86-88 % of the administered dose
AUC0-inf [2, 10]: 122 μg eq · h/mL
AUC0-tlast [2, 10]: 117 μg eq · h/mL
Cmax [2, 10]: 40.4 μg eq/mL
Extrapolation [2, 10]: 16.8%
ke1 [2, 10]: 0.0130 h⁻¹
tlast [2, 10]: 120 h
AUC0-inf [2, 11]: 227 μg eq · h/mL
AUC0-tlast [2, 11]: 201 μg eq · h/mL
Cmax [2, 11]: 94.4 μg eq/mL
Extrapolation [2, 11]: 11.3%
ke1 [2, 11]: 0.0138 h⁻¹
tlast [2, 11]: 120 h
Bioavailibility ([2]; blood): 92.9%
Bioavailibility ([2]; plasma): 96.1%
AUC0-tlast [2, 12]: 108 μg eq · h/mL
Cmax [2, 12]: 5.39 μg eq/mL
tlast [2, 12]: 168 h
AUC0-inf [2, 13]: 228 μg eq · h/mL
AUC0-tlast [2, 13]: 193 μg eq · h/mL
Cmax [2, 13]: 10.9 μg eq/mL
Extrapolation [2, 13]: 15.1%
ke1 [2, 13]: 0.0092 h⁻¹
tlast [2, 13]: 168 h
mean stability value (radiochemical) ([3]; intramuscular dose formulation (Group 2), post dose): 98.9%
mean stability value (radiochemical) ([3]; intramuscular dose formulation (Group 2), pre dose): 99.2%
mean stability value (radiochemical) ([3]; intravenous dose formulation (Group 1), post dose): 99.6%
mean stability value (radiochemical) ([3]; intravenous dose formulation (Group 1), pre dose): 100%
mean radiochemical stability ([3]; intramuscular dose formulation (Group 2), following dosing): 98.2%
mean radiochemical stability ([3]; intramuscular dose formulation (Group 2), prior to dosing): 98.5%
mean radiochemical stability ([3]; intravenous dose formulation (Group 3), post dose): 98.5%
mean radiochemical stability ([3]; intravenous dose formulation (Group 3), pre dose): 98.3%

O=c1c(-c2ccc(O)cc2)coc2cc(O)cc(O)c12 [Genistein, 5,7-dihydroxy-3-(4-hydroxyphenyl)-chromen-4-one]
parts water required to dissolve one part genistein [4]: greater than 50,000 parts water
solubility ([5]; 25 °C, aqueous with cosolvent or surfactant or cyclodextrin, thermodynamic from solid, 30% Hydroxypropyl-β-cyclodextrin, read-out: Solubility of GENISTEIN at 25° C.): 6 mg/mL (≈ 22.2 mM)
solubility ([5]; 25 °C, aqueous with cosolvent or surfactant or cyclodextrin, thermodynamic from solid, 30% Sulfobutylether-β-cyclodextrin, read-out: Solubility of GENISTEIN at 25° C.): 8 mg/mL (≈ 29.6 mM)
solubility ([5]; 25 °C, organic solvent or mixture, thermodynamic from solid, Dimethyl acetamide (DMA), read-out: Solubility at 25° C.): 141 mg/mL (≈ 523 mM)
solubility ([5]; 25 °C, organic solvent or mixture, thermodynamic from solid, Ethanol, read-out: Solubility at 25° C.): 25 mg/mL (≈ 92.5 mM)
solubility ([5]; 25 °C, organic solvent or mixture, thermodynamic from solid, N-methyl pyrrolidone (NMP), read-out: Solubility at 25° C.): 238 mg/mL (≈ 881 mM)
solubility ([5]; 25 °C, organic solvent or mixture, thermodynamic from solid, Polyethylene Glycol 300 (PEG300), read-out: Solubility at 25° C.): 110 mg/mL (≈ 409 mM)
solubility ([5]; 25 °C, organic solvent or mixture, thermodynamic from solid, Polyethylene Glycol 400 (PEG400), read-out: Solubility at 25° C.): 115 mg/mL (≈ 426 mM)
solubility ([5]; 25 °C, organic solvent or mixture, thermodynamic from solid, Propylene Glycol, read-out: Solubility at 25° C.): 6.2 mg/mL (≈ 22.9 mM)
solubility ([5]; 25 °C, pH 6, aqueous buffer, thermodynamic from solid, pH 6-7, not detectable, lowest concentration, read-out: solubility in water): < 0.02 mg/mL
solubility ([5]; 25 °C, pH 7, aqueous with cosolvent or surfactant or cyclodextrin, thermodynamic from solid, 10% Polysorbate 80/10% EtOH/40% PEG400/40% 25 mM Phosphate Buffered Saline (pH 7), read-out: Solubility of GENISTEIN at 25° C.): 12 mg/mL (≈ 44.4 mM)
solubility ([5]; 25 °C, pH 7, aqueous with cosolvent or surfactant or cyclodextrin, thermodynamic from solid, 10% Polysorbate 80/10% NMP/40% PEG400/40% 25 mM Phosphate Buffered Saline (pH 7), read-out: Solubility of GENISTEIN at 25° C.): 19 mg/mL (≈ 70.3 mM)
solubility ([5]; 25 °C, pH 7, aqueous with cosolvent or surfactant or cyclodextrin, thermodynamic from solid, 10% Polysorbate 80/40% PEG400/50% 25 mM Phosphate Buffered Saline (pH 7), read-out: Solubility of GENISTEIN at 25° C.): 11 mg/mL (≈ 40.7 mM)
solubility at 7 days ([5]; 25 °C, pH 9, aqueous buffer, thermodynamic from solid, Borate buffer pH 9, 7 days): 0.043 mg/mL (≈ 0.159 mM)
solubility at 14 days ([5]; 25 °C, pH 9, aqueous buffer, thermodynamic from solid, Borate buffer pH 9, 14 days): 0.005 mg/mL (≈ 0.0185 mM)
Solubility at 25° C. ([5]; Borate buffer pH 9, 3 days): Not detected
Solubility at 25° C. ([5]; Citrate buffer pH 6): Not detected
Solubility at 25° C. ([5]; Phosphate buffer pH 7): Not detected
Solubility at 25° C. ([5]; TRIS buffer pH 8): Not detected
solubility in water ([5]; pH 6-7, not detectable, lowest concentration): < 0.00002 g/g H2O
stability in pH-solubility profile ([5]; pH 9): degradation was observed
